Assay results reported in ChEMBL document CHEMBL1136811, “Design of novel chimeric melanotropin-deltorphin analogues. Discovery of the first potent human melanocortin 1 receptor antagonist” (J Med Chem, 2003).

How the values were obtained:
[1] = molecular target: Melanocortin receptor 1 (Xenopus laevis); assay: Agonistic activity towards Melanocortin 1 receptor in the Xenopus frog skin assay
[2] = test system: Melanocortin receptor 1 (Xenopus laevis); assay: Antagonistic activity towards Melanocortin 1 receptor in Xenopus frog skin using competitive binding in the presence of 500 pM of alpha-melanocyte stimulating hormone.

| SMILES | EC50 [1] | IC50 [2] |
| --- | --- | --- |
| CC(C)[C@H](NC(=O)[C@@H]1CCC(=O)NCC(=O)N[C@@H](Cc2c[nH]cn2)C(=O)N[C@H](Cc2ccccc2)C(=O)N[C@@H](CCCN=C(N)N)C(=O)N[C@@H](Cc2c[nH]c3ccccc23)C(=O)N1)C(=O)N[C@H](C(=O)NCC(N)=O)C(C)C | 510 nM | Not Active |
| CC(C)[C@H](NC(=O)[C@@H]1CCC(=O)NCCCCCC(=O)N[C@@H](Cc2c[nH]cn2)C(=O)N[C@@H](Cc2ccccc2)C(=O)N[C@@H](CCCN=C(N)N)C(=O)N[C@@H](Cc2c[nH]c3ccccc23)C(=O)N1)C(=O)N[C@H](C(=O)NCC(N)=O)C(C)C | > 10000 nM | Not Active |
| CC(C)[C@H](NC(=O)[C@@H]1CCC(=O)NCCCCCC(=O)N[C@@H](Cc2c[nH]cn2)C(=O)N[C@H](Cc2ccccc2)C(=O)N[C@@H](CCCN=C(N)N)C(=O)N[C@@H](Cc2c[nH]c3ccccc23)C(=O)N1)C(=O)N[C@H](C(=O)NCC(N)=O)C(C)C | 23 nM | Not Active |
| CC(C)[C@H](NC(=O)[C@@H]1CCC(=O)NCCCC(=O)N[C@@H](Cc2c[nH]cn2)C(=O)N[C@@H](Cc2ccccc2)C(=O)N[C@@H](CCCN=C(N)N)C(=O)N[C@@H](Cc2c[nH]c3ccccc23)C(=O)N1)C(=O)N[C@H](C(=O)NCC(N)=O)C(C)C | 2700 nM | Not Active |
| CC(C)[C@H](NC(=O)[C@@H]1CCC(=O)NCCC(=O)N[C@@H](Cc2c[nH]cn2)C(=O)N[C@H](Cc2ccccc2)C(=O)N[C@@H](CCCN=C(N)N)C(=O)N[C@@H](Cc2c[nH]c3ccccc23)C(=O)N1)C(=O)N[C@H](C(=O)NCC(N)=O)C(C)C |  | Not Active |
| CC(C)[C@H](NC(=O)[C@@H]1CCC(=O)NCCC(=O)N[C@@H](Cc2cnc[nH]2)C(=O)N[C@H](Cc2ccccc2)C(=O)N[C@@H](CCCNC(=N)N)C(=O)N[C@@H](Cc2c[nH]c3ccccc23)C(=O)N1)C(=O)N[C@H](C(=O)NCC(N)=O)C(C)C | 31 nM |  |
| CC(C)[C@H](NC(=O)[C@@H]1CCC(=O)NCC(=O)N2CCC[C@H]2C(=O)N[C@H](Cc2ccccc2)C(=O)N[C@@H](CCCN=C(N)N)C(=O)N[C@@H](Cc2c[nH]c3ccccc23)C(=O)N1)C(=O)N[C@H](C(=O)NCC(N)=O)C(C)C | > 10000 nM |  |
| CC(C)[C@H](NC(=O)[C@@H]1CCC(=O)N[C@@H](Cc2c[nH]cn2)C(=O)N[C@H](Cc2ccc3ccccc3c2)C(=O)N[C@@H](CCCN=C(N)N)C(=O)N[C@@H](Cc2c[nH]c3ccccc23)C(=O)N1)C(=O)N[C@H](C(=O)NCC(N)=O)C(C)C | 60 nM | Not Active |
| CC(C)[C@H](NC(=O)[C@@H]1CCC(=O)NCCCC(=O)N[C@@H](Cc2c[nH]cn2)C(=O)N[C@H](Cc2ccccc2)C(=O)N[C@@H](CCCN=C(N)N)C(=O)N[C@@H](Cc2c[nH]c3ccccc23)C(=O)N1)C(=O)N[C@H](C(=O)NCC(N)=O)C(C)C | 313 nM | Not Active |
| CC(C)[C@H](NC(=O)[C@@H]1CCC(=O)N[C@@H](Cc2cnc[nH]2)C(=O)N[C@@H](Cc2ccccc2)C(=O)N[C@@H](CCCNC(=N)N)C(=O)N[C@@H](Cc2c[nH]c3ccccc23)C(=O)N1)C(=O)N[C@H](C(=O)NCC(N)=O)C(C)C | > 10000 nM |  |
| CC(C)[C@H](NC(=O)[C@@H]1CCC(=O)NCC(=O)N[C@@H](Cc2c[nH]cn2)C(=O)N[C@H](Cc2ccc3ccccc3c2)C(=O)N[C@@H](CCCN=C(N)N)C(=O)N[C@@H](Cc2c[nH]c3ccccc23)C(=O)N1)C(=O)N[C@H](C(=O)NCC(N)=O)C(C)C | 60 nM | Not Active |
| CC(C)[C@H](NC(=O)[C@@H]1CCC(=O)N2CCC[C@H]2C(=O)N[C@H](Cc2ccc3ccccc3c2)C(=O)N[C@@H](CCCN=C(N)N)C(=O)N[C@@H](Cc2c[nH]c3ccccc23)C(=O)N1)C(=O)N[C@H](C(=O)NCC(N)=O)C(C)C | > 10000 nM |  |
| CC(C)[C@H](NC(=O)[C@@H]1CCC(=O)NCC(=O)N[C@@H](Cc2cnc[nH]2)C(=O)N[C@@H](Cc2ccccc2)C(=O)N[C@@H](CCCNC(=N)N)C(=O)N[C@@H](Cc2c[nH]c3ccccc23)C(=O)N1)C(=O)N[C@H](C(=O)NCC(N)=O)C(C)C | 5200 nM | Not Active |

Now from value to compound:

| EC50 [1] | IC50 [2] | SMILES |
| --- | --- | --- |
| 2 nM | Not Active | CC(C)[C@H](NC(=O)[C@@H]1CCC(=O)NCCC(=O)N[C@@H](Cc2c[nH]cn2)C(=O)N[C@H](Cc2ccc3ccccc3c2)C(=O)N[C@@H](CCCN=C(N)N)C(=O)N[C@@H](Cc2c[nH]c3ccccc23)C(=O)N1)C(=O)N[C@H](C(=O)NCC(N)=O)C(C)C |
|  | Not Active | CC(C)[C@H](NC(=O)[C@@H]1CCC(=O)NCCCC(=O)N[C@@H](Cc2c[nH]cn2)C(=O)N[C@H](Cc2ccc3ccccc3c2)C(=O)N[C@@H](CCCN=C(N)N)C(=O)N[C@@H](Cc2c[nH]c3ccccc23)C(=O)N1)C(=O)N[C@H](C(=O)NCC(N)=O)C(C)C |
| 23 nM |  | CC(C)[C@H](NC(=O)[C@@H]1CCC(=O)NCCCC(=O)N[C@@H](Cc2cnc[nH]2)C(=O)N[C@H](Cc2ccc3ccccc3c2)C(=O)N[C@@H](CCCNC(=N)N)C(=O)N[C@@H](Cc2c[nH]c3ccccc23)C(=O)N1)C(=O)N[C@H](C(=O)NCC(N)=O)C(C)C |
| > 10000 nM |  | CC(C)[C@H](NC(=O)[C@@H]1CCC(=O)NCC(=O)N2CCC[C@H]2C(=O)N[C@H](Cc2ccc3ccccc3c2)C(=O)N[C@@H](CCCN=C(N)N)C(=O)N[C@@H](Cc2c[nH]c3ccccc23)C(=O)N1)C(=O)N[C@H](C(=O)NCC(N)=O)C(C)C |
| 825 nM |  | CC(C)[C@H](NC(=O)[C@@H]1CCC(=O)N[C@@H](Cc2c[nH]cn2)C(=O)N[C@H](Cc2ccccc2)C(=O)N[C@@H](CCCN=C(N)N)C(=O)N[C@@H](Cc2c[nH]c3ccccc23)C(=O)N1)C(=O)N[C@H](C(=O)NCC(N)=O)C(C)C |
| > 10000 nM |  | CC(C)[C@H](NC(=O)[C@@H]1CCC(=O)NCC(=O)N[C@@H](Cc2cncn2COCc2ccccc2)C(=O)N[C@H](Cc2ccccc2)C(=O)N[C@@H](CCCN=C(N)N)C(=O)N[C@@H](Cc2c[nH]c3ccccc23)C(=O)N1)C(=O)N[C@H](C(=O)NCC(N)=O)C(C)C |
